Source: paper PMC4515248 (Applied Biochemistry and Biotechnology, 2015)

Biological target: T1, CuCDH (Cerrena unicolor, UniProt S5R9V1)
T1 construct: native secreted intact flavocytochrome (heme b plus FAD domains) purified from culture supernatant; signal peptide (18 aa) removed; precursor 771 aa
Assay: UV-visible spectrum of purified enzyme
Type: binding
Conditions: 100 mM sodium acetate, pH 4.5; oxidized and lactose-reduced

T1 sequence (S5R9V1 19-771): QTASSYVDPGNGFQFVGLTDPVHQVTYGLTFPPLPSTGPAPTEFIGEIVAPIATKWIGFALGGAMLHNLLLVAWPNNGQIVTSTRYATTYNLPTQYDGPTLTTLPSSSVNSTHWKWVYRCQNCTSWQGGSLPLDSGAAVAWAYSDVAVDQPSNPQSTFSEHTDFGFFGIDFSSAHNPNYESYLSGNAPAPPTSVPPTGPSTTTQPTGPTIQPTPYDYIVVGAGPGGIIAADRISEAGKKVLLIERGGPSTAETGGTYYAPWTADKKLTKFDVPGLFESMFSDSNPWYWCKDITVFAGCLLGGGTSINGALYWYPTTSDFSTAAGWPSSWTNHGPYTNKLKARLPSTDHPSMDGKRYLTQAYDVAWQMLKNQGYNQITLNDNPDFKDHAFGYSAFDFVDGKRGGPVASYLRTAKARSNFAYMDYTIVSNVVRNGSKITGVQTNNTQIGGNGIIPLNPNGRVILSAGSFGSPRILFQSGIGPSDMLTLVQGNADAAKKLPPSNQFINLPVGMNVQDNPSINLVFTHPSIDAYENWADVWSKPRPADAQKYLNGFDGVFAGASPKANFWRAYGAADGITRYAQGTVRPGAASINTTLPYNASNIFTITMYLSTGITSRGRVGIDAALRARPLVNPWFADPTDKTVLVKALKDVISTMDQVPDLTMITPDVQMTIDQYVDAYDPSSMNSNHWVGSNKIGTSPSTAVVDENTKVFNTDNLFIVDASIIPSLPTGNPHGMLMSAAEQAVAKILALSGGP

Compound: Cc1cc2nc3c(=O)[nH]c(=O)nc-3n(C[C@H](O)[C@H](O)[C@H](O)COP(=O)(O)OP(=O)(O)OC[C@H]3O[C@@H](n4cnc5c(N)ncnc54)[C@H](O)[C@@H]3O)c2cc1C [FAD]
- UV-visible spectrum of purified enzyme: indicated the presence of heme and flavin cofactors in the protein
